Experimental data reported in US20120202840A1, “Use of Flubendazole and Vinca Alkaloids for Treatment of Hematological Diseases” (priority 2009, published 2012).
Where two headings read alike, the source gives them in different places.

Assays:
[1] = tested on: OCI-AML2 cells; test: MTS cell growth and viability assay, OCI-AML2; type: cell-based; conditions: OCI-AML2, 72 h, MTS assay
Description: (A) OCI-AML2 cells were treated for 72 h with increasing concentrations of benzimidazoles. After incubation, cell growth and viability was measured by the MTS assay. Data represent the mean percentage of viable cells ±SD from a representative experiment.
Cell growth and viability was measured using the 3-(4,5-dimethylthiazol-2-yl)-5-(3-carboxymethoxyphenyl)-2-(4-sulfophenyl)-2H-tetrazolium inner salt (MTS) reduction assay (Promega, Madison, Wis.) according to the manufacture's protocol and as previously described^25. Cells were seeded in 96 well plates and treated with drug for 72 h. Optical density (OD) was measured at 490 nm.

[2] = tested on: Primary AML cell samples; test: Methylcellulose colony forming assay; type: cell-based, human; conditions: primary AML samples (n=3), colonies counted 7 days after plating
Description: (C) Primary AML cell samples (n=3) were plated in a methylcellulose colony forming assay with increasing concentrations of flubendazole. Colonies were counted 7 days after plating and normalized to cultures treated with buffer alone. Data represent the mean±SD from 3 independent experiments performed in duplicate.
Primary human acute myeloid leukemia (AML) samples were isolated from the peripheral blood of consenting AML patients, who had at least 80% malignant cells among the mononuclear cells in their peripheral blood and cultured at 37° C. in IMDM, 10% fetal calf serum, 100 units/mL of streptomycin and 100 μg/mL of penicillin. The collection and use of human tissue for this study was approved by the local ethics review board (University Health Network, Toronto, ON, Canada).

[3] = tested on: U937 leukemia cells; test: Analysis of gene expression (Affymetrix arrays); type: cell-based; conditions: 1.0 μM, 4 hours
Description: Briefly, total RNA was harvested from treated and untreated cells and hybridized to Affymetrix HG U133 Plus 2.0 gene expression oligonucleotide arrays (Affymetrix, Santa Clara, Calif., USA). Labeling and hybridization to arrays were performed by The Centre for Applied Genomics (Medical and Related Sciences Centre, Toronto, ON, Canada). Microarray data were analyzed using GeneSpring GX v10.0 (Agilent), and genes deregulated >4-fold after 4 hours flubendazole treatment were identified. Pathways and gene ontology analyses were carried out using Ingenuity Pathways Analysis (www.ingenuity.com) and the Database for Annotation, Visualization and Integrated Discovery (DAVID; http://david.abcc.ncifcrf.gov). Connectivity Map analysis, which compares the changes in gene expression signature following flubendazole treatment with gene expression signatures following treatment with other common pharmacological agents, was also performed (http://www.broadinstitute.org/cmap).

[4] = tested on: OCI-AML2 cells; test: Cell cycle analysis (PI, flow cytometry), OCI-AML2; type: cell-based; conditions: OCI-AML2, 1.0 μM, 24 h
Description: (§1) OCI-AML2 cells (A) or PPC-1 cells (B) were incubated with 1.0 μM flubendazole or buffer control for 24 h. Cells were then stained with PI and the DNA content was measured by flow cytometry. A representative figure is shown.
(§2) Cell cycle analysis was performed as described by Mao et al^31. Briefly, OCI-AML2 or PPC-1 cells were harvested, washed with cold PBS and resuspended in PBS and cold absolute ethanol. Cells were then treated with 100 ng/mL of DNase-free RNase A (Invitrogen, Carlsbad, Calif.) at 37° C. for 30 min, washed with cold PBS, resuspended in PBS and incubated with 50 μg/mL of propidium iodine (PI) for 15 min at room temperature in the dark. DNA content was measured by flow cytometry (FACSCalibur, Becton Dickinson, Florida, USA) and analyzed with FlowJo software version 7.0 (TreeStar, Ashland, Oreg.).

[5] = tested on: PPC-1 cells; test: Cell cycle analysis (PI, flow cytometry), PPC-1; type: cell-based; conditions: PPC-1, 1.0 μM, 24 h
Description: as §1, §2

[6] = tested on: PPC-1 cells; test: Mitotic catastrophe (multinucleated cells); type: cell-based; conditions: 1.0 μM, 24 h
Description: (C) PPC-1 cells were treated as above and stained with anti α-tubulin antibody and DAPI, as described in the materials and methods. Cells were imaged by confocal microscopy and the number of multi-nucleated cells was enumerated. Data represent the mean±SD percent of multinucleated cells from a representative experiment *p<0.0001 (unpaired t test). Insert: a representative multi-nucleated cell.
Mitotic catastrophe was measured by enumerating the number of multinucleated cells similar to the method previously described^26. Briefly, cells (5.0×10^5) were fixed and stained as described below. Fields containing 100 cells per treatment group were selected at random and visualized at 20×. A total of 700 cells were scored per treatment condition. A positive score for mitotic catastrophe was given when two or more distinct nuclear lobes were visualized within a single cell.

[7] = tested on: KB-4.0-HTI; test: MTS assay, KB-4.0-HTI (α-tubulin mutant); type: cell-based
Description: (§3) Next, whether microtubule inhibition was functionally important for flubendazole's cytotoxicity was determined.
(§4) Leukemia (U937, MDAY, CEM, CEM-VBL) and solid tumor cell lines (PPC-1, HeLa) were cultured in RPMI 1640 medium. The epidermoid carcinoma cell lines KB-3-1 and KB-4.0-HTI^23 were grown in Dulbecco's Modified Eagle Medium. The lung carcinoma cell lines A549 and A549.EpoB40 were grown in RPMI with the latter supplemented with 20% fetal calf serum (FCS), and 40 nM epothilone B.^24 Leukemia cell lines OCI-AML2, CEM, and NB4 and all the myeloma cell lines (OPM2, KMS11, JJN3 LP1, H929, L1, KMS12, KSM18 and OCI My5) were maintained in Iscove's Modified Dulbecco's Medium (IMDM). TEX cells were maintained in IMDM, 15% FCS, 1% penicillin-streptomycin, 2 mM L-glutamine, 20 ng/mL SCF, 2 ng/mL IL-3. Unless otherwise noted, all media were supplemented with 10% FCS, 100 units/mL of streptomycin and 100 μg/mL of penicillin (all from Hyclone, Logan, Utah). Cells were incubated in a humidified air atmosphere containing 5% CO2 at 37° C.
(§5) Cell growth and viability was measured using the 3-(4,5-dimethylthiazol-2-yl)-5-(3-carboxymethoxyphenyl)-2-(4-sulfophenyl)-2H-tetrazolium inner salt (MTS) reduction assay (Promega, Madison, Wis.) according to the manufacture's protocol and as previously described^25. […] Optical density (OD) was measured at 490 nm.

[8] = tested on: A549; test: MTS assay, A549; type: cell-based; conditions: Homo sapiens, 3 replicates
Description: as §3, §4, §5

[9] = tested on: A549.EpoB40; test: MTS assay, A549.EpoB40 (β-tubulin mutant); type: cell-based
Description: as §3, §4, §5

[10] = chickens, up to 180 mg/kg daily for 7 days; cited from earlier work
[11] = healthy volunteers, 1000 mg single oral dose, three days after administration; cited from earlier work
[12] = rats, mice and guinea-pigs, cited from earlier work
[13] = rats, up to 150 mg/kg/day for 3 months; cited from earlier work
[14] = ratio of IC50 values of Table 1

COC(=O)Nc1nc2ccc(C(=O)c3ccc(F)cc3)cc2[nH]1 [flubendazole]
rank of potency in panel of 8 benzimidazoles [1]: most potent
clonogenic growth [2]: reduced the clonogenic growth
number of genes deregulated >4 fold [3]: 196
cell cycle [4]: arrested cells in the G2 phase
cell cycle [5]: arrested cells in the G2 phase
number of multi-nucleated cells [6]: increased the number of multi-nucleated cells
IC50 ([7]; KB-4.0-HTI, MTS assay, 3 replicates): 12.5 ± 1.8 µM
IC50 higher in KB-4.0-HTI than in KB-3-1 wild type cells [7, 14]: 7 fold
IC50 [8]: 4.1 ± 1.3 µM
IC50 ([9]; A549.EpoB40, MTS assay, 3 replicates): 0.8 ± 0.2 µM
IC50 lower in A549.EpoB40 than in A549 control cells [9, 14]: 5 fold
toxicity [10]: developed anemia and reduction of red cells in the spleen
unchanged drug detected in the feces [11]: 77%
unchanged drug detected in the urine [11]: less than 0.1%
LD50 ([12]; intraperitoneal administration): > 400 mg/kg
LD50 ([12]; oral administration): > 5000 mg/kg
toxicity [13]: No toxicity was noted
